From US8450305B2, “Macrocyclic compounds useful as inhibitors of kinases and HSP90” (Universite de Strasbourg, priority 2006, dated 2013)
Where two headings read alike, the source gives them in different places.

Columns and labels:
HCC1954 tumor cells = assay: Cytotoxicity, MTS assay, HCC1954; type: cell-based; conditions: Homo sapiens, 72 hours
Method: (§1) Tumor cells were grown as adherent monolayers at 37° C. in a humidified atmosphere (5% CO2, 95% air). The culture medium was RPMI 1640 containing 2 mM L-glutamine (Ref BE12-702F, Cambrex, Verviers, Belgium) and supplemented with 10% fetal bovine serum (Ref DE14-801E, Cambrex). For experimental use, the adherent tumour cells were detached from the culture flask by a 5-minute treatment with trypsin-versene (Ref O2-007E, Cambrex), diluted in Hanks' medium without calcium or magnesium (Ref BE10-543F, Cambrex) and neutralized by addition of complete culture medium. Before use, cells were counted in a hemocytometer and their viability were assessed by 0.25% trypan blue exclusion. Mycoplasma detection was performed using the MycoAlert® Mycoplasma Detection Kit (Ref LT07-318, Cambrex) in accordance with the manufacturer instructions. The MycoAlert®Assay is a selective biochemical test that exploits the activity of mycoplasmal enzymes. The viable mycoplasma are lysed and the enzymes react with the MycoAlert® substrate catalyzing the conversion of ADP to ATP. By measuring the level of ATP in a sample both before and after the addition of the MycoAlert® substrate a ratio can be obtained which is indicative of the presence or absence of mycoplasma. The mycoplasma test was assayed in duplicate from the culture supernatants of the cell lines and compared to negative and positive controls (MycoAlert® Assay Control Set, Ref LT07-518, Cambrex) (Internal Standard Operating Procedure No TEC-007/002). Both HCC1954 and SK-BR-3 tumour cells (5,000 cells per well) were plated in 96-well flat-bottom microtitration plates (Ref 167008, Nunc, Dutscher, Brumath, France) and incubated at 37° C. for 24 hours before treatment in 190 μl of drug-free culture medium supplemented with 10% FBS. Both HCC1954 and SK-BR-3 tumour cell lines were incubated for 72 hours with […], in ¼ dilution steps, of the test substances (ranging from […]) to be tested as well as paclitaxel (ranging from 10^−7 to 10^−12 M). The cells (190 μl) will be incubated in a 200 μl final volume of culture medium supplemented with 10% FBS containing test substances at 37° C. under 5% CO2. One experiment is performed, each concentration being issued from quadruplicate. Control cells are treated with corresponding vehicle alone. At the end of treatments, the cytotoxic activity is evaluated by a MTS assay. […] Like MTT, MTS is bioreduced by cells into a formazan product that is directly soluble in culture medium without processing, unlike MTT.
(§2) At the end of the cells treatment, 40 μl of a 0.22 μm filtered freshly combined solution of MTS (20 ml at 2 mg/ml, Ref G1111A, Promega, Charbonnières, France) and PMS (1 ml at 0.92 mg/ml, Ref P9625, Sigma) in Dulbecco's Phosphate Buffered Saline (DPBS, Ref 17-513F, Cambrex), were added in each well. Culture plates were incubated for 2 h at 37° C. Absorbency (OD) will be measured at 490 nm in each well using VICTOR^3™ 1420 multilabeled counter (Wallac, PerkinElmer, Courtaboeuf, France).

SK-BR-3 tumor cells = assay: Cytotoxicity, MTS assay, SK-BR-3; type: cell-based; conditions: Homo sapiens, 72 hours
Method: as §1, §2

[1] = rcm bond, Grubbs II, toluene, 2.0 mM, 80.0 °C
SRC = target: T1, SRC (Homo sapiens, UniProt P12931); assay: Radiometric protein kinase assay, SRC; type: biochemical; conditions: 1 μM ATP; read-out: Inhibitory activity (IC50:μM) SRC
T1 construct: host or cells: Sf9 insect cells (baculovirus)
Source text: (§3) All protein kinases were expressed in Sf9 insect cells as human recombinant GST-fusion proteins or His-tagged proteins by means of the baculovirus expression system. Kinases were purified by affinity chromatography using either GSH-agarose (Sigma) or Ni-NTH-agarose (Qiagen). The purity of each kinase was checked by SDS-PAGE/silver staining and the identity of each kinase was verified by western blot analysis with kinase specific antibodies or by mass spectroscopy.
(§4) A radiometric protein kinase assay (^33PanQinase® Activity Assay) was used for measuring the kinase activity of the 24 protein kinases. All kinase assays were performed in 96-well FlashPlates™ from Perkin Elmer (Boston, Mass., USA) in a 50 μl reaction volume. The reaction cocktail was pipetted in 4 steps in the following order: • 20 μl of assay buffer • 5 μl of ATP solution (in H2O) • 5 μl of test compound (in 10% DMSO) • 10 μl of substrate/10 […] of enzyme solution (premixed)
(§5) The assay for all enzymes contained 60 mM HEPES-NaOH, pH 7.5, 3 mM MgCl2, 3 mM MnCl2, 3 μM Na-orthovanadate, 1.2 mM DTT, 50 μg/ml PEG20000, 1 μM [γ-^33P]-ATP (approx. 5×10^05 cpm per well).
(§6) For the 24 kinase assays, the following amounts of enzyme and substrate were used per well:
(§7) The reaction cocktails were incubated at 30° C. for 80 minutes. The reaction was stopped with 50 μl of 2% (v/v) H3PO4, plates were aspirated and washed two times with 200 μl of 0.9% (w/v) NaCl or 200 μl H2O. Incorporation of ^33Pi was determined with a microplate scintillation counter (Microbeta Trilux, Wallac).
(§8) The median value of the counts in column 1 (n=8) of each assay plate was defined as “low control”. This value reflects unspecific binding of radioactivity to the plate in the absence of a protein kinase but in the presence of the substrate. The median value of the counts in column 7 of each assay plate (n=8) was taken as the “high control”, i.e. full activity in the absence of any inhibitor. The difference between high and low control was taken as 100% activity.
(§9) As part of the data evaluation the low control value from a particular plate was subtracted from the high control value as well as from all 80 “compound values” of the corresponding plate. The residual activity (in %) for each well of a particular plate was calculated by using the following formula: Res. Activity (%)=100×[(cpm of compound−low control)/(high control−low control)]
(§10) The residual activities for each concentration and the compound IC50 values were calculated using Quattro Workflow V2.1.0.0 (Quattro Research GmbH, Munich, Germany; www.quattro-research.com). The model used was “Sigmoidal response (variable slope)” with parameters “top” fixed at 100% and “bottom” at 0%.

EGF-R = target: T2, EGF-R (Homo sapiens, UniProt P00533); assay: Radiometric protein kinase assay, EGF-R; type: biochemical; conditions: 1 μM ATP; read-out: Inhibitory activity (IC50:μM) EGF-R
T2 construct: host or cells: Sf9 insect cells (baculovirus)
Source text: as §3, §4, §5, §6, §7, §8, §9, §10

IGF1-R = target: T3, IGF1-R (Homo sapiens, UniProt P08069); assay: Radiometric protein kinase assay, IGF1-R; type: biochemical; conditions: 1 μM ATP; read-out: Inhibitory activity (IC50:μM) IGF1-R
T3 construct: host or cells: Sf9 insect cells (baculovirus)
Source text: as §3, §4, §5, §6, §7, §8, §9, §10

HSP90 = HSP90 (Homo sapiens, UniProt P07900); assay: HSP90 affinity, competition assay with geldanamycin; type: binding
panel of 24 kinase = assay: Radiometric protein kinase assay (33PanQinase), panel of 24 kinases; type: biochemical, human; conditions: at 10 μM
Source text: as §3
A radiometric protein kinase assay (^33PanQinase® Activity Assay) was used for measuring the kinase activity of the 24 protein kinases.
as §5, §7, §8, §9

T3 sequence (P08069 31-1367): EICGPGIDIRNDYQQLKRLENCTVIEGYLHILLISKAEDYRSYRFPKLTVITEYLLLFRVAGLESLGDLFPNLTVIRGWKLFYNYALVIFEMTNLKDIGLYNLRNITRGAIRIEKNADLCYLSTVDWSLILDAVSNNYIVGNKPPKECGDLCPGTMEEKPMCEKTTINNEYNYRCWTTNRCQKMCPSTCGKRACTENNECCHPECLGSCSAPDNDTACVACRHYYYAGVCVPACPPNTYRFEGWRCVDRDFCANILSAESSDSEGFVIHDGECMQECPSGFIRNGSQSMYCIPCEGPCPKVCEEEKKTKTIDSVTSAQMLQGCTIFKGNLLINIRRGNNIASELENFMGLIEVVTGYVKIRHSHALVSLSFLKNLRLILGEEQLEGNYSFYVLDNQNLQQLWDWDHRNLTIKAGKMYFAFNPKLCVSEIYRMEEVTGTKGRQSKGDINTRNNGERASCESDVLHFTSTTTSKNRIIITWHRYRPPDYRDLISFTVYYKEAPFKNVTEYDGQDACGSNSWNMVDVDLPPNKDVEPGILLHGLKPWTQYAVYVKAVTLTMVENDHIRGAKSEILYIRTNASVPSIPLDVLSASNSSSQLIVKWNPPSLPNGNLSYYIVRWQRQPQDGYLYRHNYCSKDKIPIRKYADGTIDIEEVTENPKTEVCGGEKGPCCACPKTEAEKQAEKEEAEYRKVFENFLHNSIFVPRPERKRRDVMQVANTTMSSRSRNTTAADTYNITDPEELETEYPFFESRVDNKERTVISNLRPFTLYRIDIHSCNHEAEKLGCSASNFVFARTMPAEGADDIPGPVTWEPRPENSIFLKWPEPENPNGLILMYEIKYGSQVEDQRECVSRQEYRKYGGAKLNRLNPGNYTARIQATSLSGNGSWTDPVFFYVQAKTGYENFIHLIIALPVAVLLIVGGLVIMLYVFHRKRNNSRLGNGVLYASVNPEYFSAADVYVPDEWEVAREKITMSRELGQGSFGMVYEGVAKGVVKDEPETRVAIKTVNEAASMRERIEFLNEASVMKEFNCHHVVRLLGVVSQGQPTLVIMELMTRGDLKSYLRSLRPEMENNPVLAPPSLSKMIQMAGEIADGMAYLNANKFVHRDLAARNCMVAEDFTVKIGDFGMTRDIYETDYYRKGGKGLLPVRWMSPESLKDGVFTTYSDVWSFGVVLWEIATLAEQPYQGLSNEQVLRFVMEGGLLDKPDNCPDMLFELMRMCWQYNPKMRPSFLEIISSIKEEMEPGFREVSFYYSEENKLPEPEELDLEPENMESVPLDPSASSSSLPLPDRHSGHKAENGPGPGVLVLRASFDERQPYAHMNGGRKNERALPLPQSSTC
T1 sequence (P12931 whole entry): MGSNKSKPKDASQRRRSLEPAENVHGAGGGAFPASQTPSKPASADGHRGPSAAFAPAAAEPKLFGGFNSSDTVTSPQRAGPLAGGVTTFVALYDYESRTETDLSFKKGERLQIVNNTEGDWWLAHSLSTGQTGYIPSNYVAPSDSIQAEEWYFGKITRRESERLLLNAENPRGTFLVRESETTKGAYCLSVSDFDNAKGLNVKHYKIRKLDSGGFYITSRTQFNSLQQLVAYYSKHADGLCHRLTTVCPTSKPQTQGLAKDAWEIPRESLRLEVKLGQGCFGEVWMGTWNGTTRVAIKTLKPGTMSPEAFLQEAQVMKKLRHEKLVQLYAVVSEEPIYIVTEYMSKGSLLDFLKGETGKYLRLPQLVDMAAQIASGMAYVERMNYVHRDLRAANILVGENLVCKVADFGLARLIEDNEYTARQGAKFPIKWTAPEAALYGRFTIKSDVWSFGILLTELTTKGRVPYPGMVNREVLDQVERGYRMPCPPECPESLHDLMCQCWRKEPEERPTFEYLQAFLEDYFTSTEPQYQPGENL
T2 sequence (P00533 25-1210): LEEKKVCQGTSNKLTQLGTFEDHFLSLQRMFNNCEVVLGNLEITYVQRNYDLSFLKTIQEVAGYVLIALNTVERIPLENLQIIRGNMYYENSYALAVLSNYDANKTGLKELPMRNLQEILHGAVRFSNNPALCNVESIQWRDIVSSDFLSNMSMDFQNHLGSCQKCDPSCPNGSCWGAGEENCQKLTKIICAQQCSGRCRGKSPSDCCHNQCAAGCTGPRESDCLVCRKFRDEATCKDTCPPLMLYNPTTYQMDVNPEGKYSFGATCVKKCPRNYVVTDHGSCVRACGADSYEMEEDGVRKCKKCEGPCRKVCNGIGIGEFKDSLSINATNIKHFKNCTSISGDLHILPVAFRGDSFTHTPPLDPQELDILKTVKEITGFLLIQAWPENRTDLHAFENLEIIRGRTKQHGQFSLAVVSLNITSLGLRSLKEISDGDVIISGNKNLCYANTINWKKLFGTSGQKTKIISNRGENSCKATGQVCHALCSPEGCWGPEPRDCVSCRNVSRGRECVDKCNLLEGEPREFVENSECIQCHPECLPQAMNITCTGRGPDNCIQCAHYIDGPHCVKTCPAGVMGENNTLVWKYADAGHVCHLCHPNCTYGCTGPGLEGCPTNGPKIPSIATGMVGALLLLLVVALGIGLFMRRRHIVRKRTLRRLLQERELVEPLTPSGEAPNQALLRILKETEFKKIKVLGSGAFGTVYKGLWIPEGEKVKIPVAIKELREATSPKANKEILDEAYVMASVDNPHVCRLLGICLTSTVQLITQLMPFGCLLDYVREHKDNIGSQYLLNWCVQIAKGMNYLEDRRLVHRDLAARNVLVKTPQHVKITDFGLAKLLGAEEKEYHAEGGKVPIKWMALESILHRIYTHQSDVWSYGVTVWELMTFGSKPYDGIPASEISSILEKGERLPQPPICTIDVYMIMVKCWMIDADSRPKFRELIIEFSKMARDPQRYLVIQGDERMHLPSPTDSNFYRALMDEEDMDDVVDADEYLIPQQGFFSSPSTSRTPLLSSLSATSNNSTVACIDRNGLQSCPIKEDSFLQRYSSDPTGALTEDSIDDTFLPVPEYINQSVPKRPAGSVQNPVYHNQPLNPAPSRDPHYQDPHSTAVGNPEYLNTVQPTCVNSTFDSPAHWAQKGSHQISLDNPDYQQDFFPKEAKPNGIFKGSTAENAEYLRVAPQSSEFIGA

Compound	EC50 (HCC1954 tumor cells)	EC50 (SK-BR-3 tumor cells)	also measured
O=C1OCC/C=C/CC/C=C/C(=NOCC(=O)N2CCCCCC2)Cc2c(Cl)c(O)cc(O)c21 [2a-11]	0.52 µM	0.31 µM	–
CCOCOc1cc2c(c(OCOCC)c1)C(=O)O[C@H](C)CC=CCCC=CC(=O)C2	–	–	ring closure, yield of all isomers ([1]; from C=CCCC=CC(=O)Cc1cc(OCOCC)cc(OCOCC)c1C(=O)O[C@H](C)CC=C, 2 steps): 40%
CCON=C1/C=C/CC/C=C/CCOC(=O)c2c(O)cc(O)c(Cl)c2C1 [2a-22]	9.8 µM	3.8 µM	–
O=C1OCC/C=C\CC/C=C/C(=NOCC(=O)N2CCCCC2)Cc2c(Cl)c(O)cc(O)c21 [2a-5]	9.5 µM	2.5 µM	–
O=C1OCC/C=C/CC/C=C/C(=NOCC(=O)N2CCOCC2)Cc2c(Cl)c(O)cc(O)c21 [2a-18]	> 10 µM	> 10 µM	–
CNC(=O)CO/N=C1/C=C/CC/C=C/CCOC(=O)c2c(O)cc(O)c(Cl)c2C1 [2a-8]	> 10 µM	> 10 µM	–
CCOCOc1cc(OCOCC)c2c(c1Cl)CC(=O)C=CCCC=CC[C@@H](C)OC2=O	–	–	ring closure, yield of all isomers ([1]; from C=CCCC=CC(=O)Cc1c(Cl)c(OCOCC)cc(OCOCC)c1C(=O)O[C@H](C)CC=C): 94%
CCOCOc1cc2c(c(OCOCC)c1)C(=O)O[C@H](c1ccccc1)C/C=C/CC/C=C/C(=O)C2 [A-1]	–	–	IC50 (SRC): 11 µM; IC50 (EGF-R): 33 µM; IC50 (IGF1-R): 23 µM
COC1CC/C=C/CCOC(=O)c2c(O)cc(O)c(Cl)c2C/C(=N/OCC(=O)N2CCCCC2)C1 (stereo not shown) [2a-10]	> 10 µM	> 10 µM	–
C[C@@H]1CC=CCC/C=C/C(=O)Cc2c(Cl)c(OCOCC[Si](C)(C)C)cc(OCOCC[Si](C)(C)C)c2C(=O)O1	–	–	ring closure, yield of all isomers ([1]; from C=CCC/C=C/C(=O)Cc1c(Cl)c(OCOCC[Si](C)(C)C)cc(OCOCC[Si](C)(C)C)c1C(=O)O[C@H](C)CC=C, 12.0 h): 87%
C[C@@H]1C/C=C/CC/C=C/C(=O)Cc2c(Cl)c(O)cc(O)c2C(=O)O1 [2a-14]	1.2 µM	2.8 µM	–
CCOCOc1cc2c(c(OCOCC)c1)C(=O)OC(C)CC=CCCC=CC(=O)C2 (stereo not shown) [2-120, 2,4-Bis-ethoxymethoxy-7-methyl-7,8,11,12-tetrahydro-16H-6-oxa-benzocyclotetradecene-5,15-dione]	–	–	affinity for / inhibition of HSP90 (in words) (HSP90): no affinity
O=C1OCC/C=C/CC/C=C/C(=NOCC(=O)N2CCNCC2)Cc2c(Cl)c(O)cc(O)c21 [2a-15]	> 10 µM	> 10 µM	–
O=C1OCC/C=C/CC/C=C/C(=NOCc2ccccc2)Cc2c(Cl)c(O)cc(O)c21 [2a-3]	3 µM	4.5 µM	–
O=C1OCC/C=C/CCCC/C(=N/OCC(=O)N2CCCCC2)Cc2c(Cl)c(O)cc(O)c21 [2a-6]	5.2 µM	> 10 µM	–
C[C@@H]1C/C=C/CC/C=C/C(=N/OCC(=O)N2CCCCC2)Cc2c(Cl)c(O)cc(O)c2C(=O)O1 [2a-9]	0.89 µM	0.45 µM	–
O=C(CON=C1/C=C/CC/C=C/CCOC(=O)c2c(O)cc(O)c(Cl)c2C1)NC1CCCCC1 [2a-16]	0.45 µM	0.55 µM	–
C[C@@H]1CC=CCC/C=C/C(=O)Cc2c(Cl)c(O[Si](C)(C)C(C)(C)C)cc(O[Si](C)(C)C(C)(C)C)c2C(=O)O1	–	–	ring closure, yield of all isomers ([1]; from C=CCC/C=C/C(=O)Cc1c(Cl)c(O[Si](C)(C)C(C)(C)C)cc(O[Si](C)(C)C(C)(C)C)c1C(=O)O[C@H](C)CC=C, 12.0 h): 87%
C=CCC/C=C/C(Cc1c(Cl)c(O)cc(O)c1C(=O)OCCC=C)=NOCC(=O)N1CCCCC1 [2a-7]	> 10 µM	> 10 µM	–
COC1CC/C=C/C[C@H](c2ccccc2)OC(=O)c2c(O)cc(O)c(Cl)c2CC(=O)C1 (stereo partly shown) [A2]	–	–	IC50 (SRC): 8 µM
CCOCOc1cc(OCOCC)c2c(c1Cl)CC(=O)C=CCCC=CCC(C)OC2=O (stereo not shown) [2-112, 1-Chloro-2,4-bis-ethoxymethoxy-7-methyl-7,8,11,12-tetrahydro-16H-6-oxa-benzocyclotetradecene-5,15-dione]	–	–	affinity for / inhibition of HSP90 (in words) (HSP90): no affinity
O=C(CON=C1/C=C/CC/C=C/CCOC(=O)c2c(O)cc(O)c(Cl)c2C1)NCCO [2a-4]	> 10 µM	7.5 µM	–
O=C(CON=C1/C=C/CC/C=C/CCOC(=O)c2c(O)cc(O)c(Cl)c2C1)NCc1ccccc1 [2a-17]	8.5 µM	3.5 µM	–
O=C1/C=C/CCC2OC2C[C@H](c2ccccc2)OC(=O)c2c(O)cc(O)c(Cl)c2C1 (stereo partly shown) [A5]	–	–	IC50 (IGF1-R): 11 µM
C[C@@H]1C/C=C/CC/C=C/C(=O)Cc2c(Cl)c(O)cc(O)c2C(=O)O1 [pochonin D, reference compound]	–	–	inhibition in a panel of 24 kinase (panel of 24 kinase): no significant activity; IC50 (HSP90): 0.08 µM
